In publication PMC6576746, “Rational discovery of dual-indication multi-target PDE/Kinase inhibitor for precision anti-cancer therapy using structural systems pharmacology” (PLoS Computational Biology, 2019):

Assays:
Assay in all cases: biochemical
Set-up in all cases: DiscoverX KinomeScan competition binding assay across human kinases; per cent of control at 10 and 100 uM
[1] = target: T1, ABL1(H396P)-nonphosphorylated (Homo sapiens, UniProt P00519, H396P); settings: competition binding, % of control; read-out: Percent Control (100 uM Levosimendan)
T1 construct: nonphosphorylated
Summary of the method: (§1)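 Binding is expressed as %control, normalised between positive and negative control signals. The compound (levosimendan) was tested at 10 μM and 100 μM in the DiscoverX KinomeScan competition binding format against human kinases.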

[2] = target: T2, CAMK1B (Homo sapiens, UniProt Q6P2M8); settings: competition binding, % of control; read-out: Percent Control (100 uM Levosimendan)
T2 construct: gene PNCK
Summary of the method: as §1

[3] = target: CSNK2A1 (Homo sapiens, UniProt P68400); settings: competition binding, % of control; read-out: Percent Control (100 uM Levosimendan)
Chain of CSNK2A1 (P68400 whole entry): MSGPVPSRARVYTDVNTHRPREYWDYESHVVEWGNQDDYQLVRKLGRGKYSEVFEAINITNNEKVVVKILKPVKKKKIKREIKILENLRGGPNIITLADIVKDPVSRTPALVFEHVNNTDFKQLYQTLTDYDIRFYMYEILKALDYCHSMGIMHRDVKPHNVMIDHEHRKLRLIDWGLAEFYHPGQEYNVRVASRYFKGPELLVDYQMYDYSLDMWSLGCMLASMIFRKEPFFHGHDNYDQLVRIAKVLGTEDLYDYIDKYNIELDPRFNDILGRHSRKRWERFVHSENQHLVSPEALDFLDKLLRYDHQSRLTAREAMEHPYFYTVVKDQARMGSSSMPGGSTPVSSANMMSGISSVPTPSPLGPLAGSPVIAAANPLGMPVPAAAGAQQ
Summary of the method: as §1

[4] = target: T3, ERK3 (Homo sapiens, UniProt Q16659); settings: competition binding, % of control; read-out: Percent Control (100 uM Levosimendan)
T3 construct: gene MAPK6
T3 sequence (Q16659 whole entry): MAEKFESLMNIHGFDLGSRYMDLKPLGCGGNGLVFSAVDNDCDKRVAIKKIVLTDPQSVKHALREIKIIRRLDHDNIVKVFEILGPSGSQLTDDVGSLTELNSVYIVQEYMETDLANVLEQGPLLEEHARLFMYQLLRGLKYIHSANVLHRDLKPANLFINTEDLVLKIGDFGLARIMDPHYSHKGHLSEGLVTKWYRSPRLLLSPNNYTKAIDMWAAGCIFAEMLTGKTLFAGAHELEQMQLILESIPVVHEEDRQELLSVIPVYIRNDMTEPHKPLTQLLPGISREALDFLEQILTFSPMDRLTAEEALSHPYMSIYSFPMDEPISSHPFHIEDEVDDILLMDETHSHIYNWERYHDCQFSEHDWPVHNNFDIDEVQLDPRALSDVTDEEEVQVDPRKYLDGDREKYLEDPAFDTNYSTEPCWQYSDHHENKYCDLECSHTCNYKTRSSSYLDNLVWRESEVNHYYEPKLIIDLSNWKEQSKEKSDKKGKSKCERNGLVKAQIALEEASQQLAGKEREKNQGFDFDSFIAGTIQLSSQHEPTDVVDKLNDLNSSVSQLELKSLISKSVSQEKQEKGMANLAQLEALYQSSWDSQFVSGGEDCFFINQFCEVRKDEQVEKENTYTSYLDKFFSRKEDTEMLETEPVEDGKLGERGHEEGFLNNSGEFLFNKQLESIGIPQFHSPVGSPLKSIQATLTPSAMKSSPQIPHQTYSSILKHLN
Summary of the method: as §1

[5] = target: FGFR1 (Homo sapiens, UniProt P11362); settings: competition binding, % of control
Chain of FGFR1 (P11362 whole entry): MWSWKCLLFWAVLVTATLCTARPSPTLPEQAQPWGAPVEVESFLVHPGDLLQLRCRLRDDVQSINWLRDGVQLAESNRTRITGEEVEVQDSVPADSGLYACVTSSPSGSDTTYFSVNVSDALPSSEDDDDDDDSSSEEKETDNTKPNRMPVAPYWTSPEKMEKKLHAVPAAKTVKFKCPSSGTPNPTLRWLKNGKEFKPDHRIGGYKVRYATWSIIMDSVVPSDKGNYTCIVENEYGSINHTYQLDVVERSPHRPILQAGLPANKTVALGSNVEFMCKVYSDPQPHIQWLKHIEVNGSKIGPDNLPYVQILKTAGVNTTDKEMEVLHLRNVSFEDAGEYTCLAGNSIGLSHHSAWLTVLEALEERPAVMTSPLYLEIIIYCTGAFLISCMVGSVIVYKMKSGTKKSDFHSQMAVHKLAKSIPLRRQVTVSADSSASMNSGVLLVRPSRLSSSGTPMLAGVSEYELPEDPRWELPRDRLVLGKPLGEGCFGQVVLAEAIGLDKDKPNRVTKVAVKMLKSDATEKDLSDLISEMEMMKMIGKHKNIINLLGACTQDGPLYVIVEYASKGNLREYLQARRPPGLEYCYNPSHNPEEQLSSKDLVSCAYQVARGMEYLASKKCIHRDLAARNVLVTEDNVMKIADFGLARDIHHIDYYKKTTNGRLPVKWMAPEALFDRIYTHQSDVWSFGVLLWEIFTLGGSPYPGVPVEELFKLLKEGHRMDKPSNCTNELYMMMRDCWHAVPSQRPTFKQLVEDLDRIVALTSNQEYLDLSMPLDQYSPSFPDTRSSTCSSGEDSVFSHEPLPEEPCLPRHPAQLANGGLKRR
Summary of the method: as §1

[6] = target: FGFR2 (Homo sapiens, UniProt P21802); settings: competition binding, % of control; read-out: Percent Control (100 uM Levosimendan)
Summary of the method: as §1

[7] = target: T4, GCN2(Kin.Dom.2,S808G) (Homo sapiens, UniProt Q9P2K8, S808G); settings: competition binding, % of control; read-out: Percent Control (100 uM Levosimendan)
T4 construct: gene EIF2AK4; Kin.Dom.2
Summary of the method: as §1

[8] = target: MAPKAPK2 (Homo sapiens, UniProt P49137); settings: competition binding, % of control; read-out: Percent Control (100 uM Levosimendan)
Chain of MAPKAPK2 (P49137 whole entry): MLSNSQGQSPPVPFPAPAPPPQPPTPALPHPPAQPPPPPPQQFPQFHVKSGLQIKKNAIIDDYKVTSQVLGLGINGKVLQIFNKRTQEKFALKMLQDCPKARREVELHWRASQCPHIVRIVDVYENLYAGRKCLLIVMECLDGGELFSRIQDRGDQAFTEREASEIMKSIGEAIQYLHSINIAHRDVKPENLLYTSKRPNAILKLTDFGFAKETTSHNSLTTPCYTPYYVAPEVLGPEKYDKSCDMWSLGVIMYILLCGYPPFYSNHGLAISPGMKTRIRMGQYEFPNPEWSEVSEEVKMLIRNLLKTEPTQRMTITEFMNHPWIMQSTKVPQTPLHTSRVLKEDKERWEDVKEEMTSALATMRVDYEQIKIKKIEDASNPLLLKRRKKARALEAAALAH
Summary of the method: as §1

[9] = target: T5, MEK1 (Homo sapiens, UniProt Q02750); settings: competition binding, % of control; read-out: Percent Control (100 uM Levosimendan)
T5 construct: gene MAP2K1
T5 sequence (Q02750 whole entry): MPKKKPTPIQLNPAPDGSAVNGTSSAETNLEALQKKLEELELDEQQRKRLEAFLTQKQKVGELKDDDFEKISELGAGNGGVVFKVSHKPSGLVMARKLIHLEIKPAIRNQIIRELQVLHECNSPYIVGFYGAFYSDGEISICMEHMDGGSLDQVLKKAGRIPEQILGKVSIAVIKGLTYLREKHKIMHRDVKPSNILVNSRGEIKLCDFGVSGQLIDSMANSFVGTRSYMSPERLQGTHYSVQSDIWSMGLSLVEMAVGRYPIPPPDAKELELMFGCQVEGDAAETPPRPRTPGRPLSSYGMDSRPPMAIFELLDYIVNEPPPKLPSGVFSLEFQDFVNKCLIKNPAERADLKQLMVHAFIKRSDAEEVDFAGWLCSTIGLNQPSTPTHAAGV
Summary of the method: as §1

[10] = target: T6, MEK3 (Homo sapiens, UniProt P46734); settings: competition binding, % of control; read-out: Percent Control (100 uM Levosimendan)
T6 construct: gene MAP2K3
T6 sequence (P46734 whole entry): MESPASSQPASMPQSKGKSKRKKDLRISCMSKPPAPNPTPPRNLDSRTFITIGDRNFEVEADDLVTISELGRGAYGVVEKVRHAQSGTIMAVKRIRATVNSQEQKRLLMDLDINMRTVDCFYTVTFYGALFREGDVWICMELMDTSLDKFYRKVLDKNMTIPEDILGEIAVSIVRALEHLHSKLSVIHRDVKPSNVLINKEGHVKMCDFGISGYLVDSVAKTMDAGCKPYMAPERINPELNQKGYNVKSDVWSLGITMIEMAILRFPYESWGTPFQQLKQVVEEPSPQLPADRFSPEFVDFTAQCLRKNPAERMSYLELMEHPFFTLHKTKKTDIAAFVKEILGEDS
Summary of the method: as §1

[11] = target: NEK11 (Homo sapiens, UniProt Q8NG66); settings: competition binding, % of control; read-out: Percent Control (100 uM Levosimendan)
Summary of the method: as §1

[12] = target: NEK5 (Homo sapiens, UniProt Q6P3R8); settings: competition binding, % of control; read-out: Percent Control (100 uM Levosimendan)
Chain of NEK5 (Q6P3R8 whole entry): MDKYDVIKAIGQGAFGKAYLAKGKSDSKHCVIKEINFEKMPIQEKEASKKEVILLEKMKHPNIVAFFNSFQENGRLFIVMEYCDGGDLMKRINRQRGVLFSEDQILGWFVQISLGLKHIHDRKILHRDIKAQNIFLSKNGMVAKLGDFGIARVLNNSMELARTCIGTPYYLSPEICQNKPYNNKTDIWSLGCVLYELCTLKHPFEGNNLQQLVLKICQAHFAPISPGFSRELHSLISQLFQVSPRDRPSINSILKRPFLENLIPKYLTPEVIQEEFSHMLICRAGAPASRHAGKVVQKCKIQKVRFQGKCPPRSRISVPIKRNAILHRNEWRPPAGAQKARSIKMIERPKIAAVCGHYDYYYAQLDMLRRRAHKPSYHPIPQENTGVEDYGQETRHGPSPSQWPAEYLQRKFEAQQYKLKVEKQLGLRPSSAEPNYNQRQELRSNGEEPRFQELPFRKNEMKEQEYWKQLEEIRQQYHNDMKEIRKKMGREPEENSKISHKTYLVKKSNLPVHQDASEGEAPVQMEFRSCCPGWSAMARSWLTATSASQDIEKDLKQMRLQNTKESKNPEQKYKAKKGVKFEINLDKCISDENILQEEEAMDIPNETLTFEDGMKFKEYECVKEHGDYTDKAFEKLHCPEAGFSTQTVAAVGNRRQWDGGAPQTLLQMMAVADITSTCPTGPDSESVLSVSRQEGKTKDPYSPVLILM
Summary of the method: as §1

[13] = target: PIK3CA(M1043I) (Homo sapiens, UniProt P42336, M1043I); settings: competition binding, % of control; read-out: Percent Control (100 uM Levosimendan)
Chain of PIK3CA(M1043I) (P42336 whole entry M1043I): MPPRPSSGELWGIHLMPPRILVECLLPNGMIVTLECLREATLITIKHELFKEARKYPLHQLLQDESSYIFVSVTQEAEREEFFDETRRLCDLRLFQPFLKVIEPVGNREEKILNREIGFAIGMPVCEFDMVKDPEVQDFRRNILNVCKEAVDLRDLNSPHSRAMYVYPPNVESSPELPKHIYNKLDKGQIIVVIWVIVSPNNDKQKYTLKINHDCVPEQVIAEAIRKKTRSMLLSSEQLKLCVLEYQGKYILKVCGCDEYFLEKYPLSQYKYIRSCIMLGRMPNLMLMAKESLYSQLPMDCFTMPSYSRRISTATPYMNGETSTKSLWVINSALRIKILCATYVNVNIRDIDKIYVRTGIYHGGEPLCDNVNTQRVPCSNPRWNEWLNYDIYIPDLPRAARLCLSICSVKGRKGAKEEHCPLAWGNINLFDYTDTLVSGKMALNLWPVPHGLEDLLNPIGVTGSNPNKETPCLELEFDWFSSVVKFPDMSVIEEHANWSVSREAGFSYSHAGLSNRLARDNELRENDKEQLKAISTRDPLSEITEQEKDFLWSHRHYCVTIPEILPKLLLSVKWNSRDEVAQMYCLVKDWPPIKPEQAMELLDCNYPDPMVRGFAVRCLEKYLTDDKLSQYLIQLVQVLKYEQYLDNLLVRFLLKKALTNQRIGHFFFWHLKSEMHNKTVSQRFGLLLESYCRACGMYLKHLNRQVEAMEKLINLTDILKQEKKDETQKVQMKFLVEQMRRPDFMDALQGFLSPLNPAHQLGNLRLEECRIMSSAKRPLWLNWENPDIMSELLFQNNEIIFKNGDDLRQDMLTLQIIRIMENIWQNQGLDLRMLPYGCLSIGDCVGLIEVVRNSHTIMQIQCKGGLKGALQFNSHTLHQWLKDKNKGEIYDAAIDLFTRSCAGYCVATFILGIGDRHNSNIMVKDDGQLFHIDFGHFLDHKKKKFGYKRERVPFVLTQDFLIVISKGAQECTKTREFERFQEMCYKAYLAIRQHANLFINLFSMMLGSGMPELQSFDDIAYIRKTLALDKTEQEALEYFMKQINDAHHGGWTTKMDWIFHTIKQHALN
Summary of the method: as §1

[14] = target: PIK3CD (Homo sapiens, UniProt O00329); settings: competition binding, % of control; read-out: Percent Control (100 uM Levosimendan)
Summary of the method: as §1

[15] = target: PLK3 (Homo sapiens, UniProt Q9H4B4); settings: competition binding, % of control; read-out: Percent Control (100 uM Levosimendan)
Summary of the method: as §1

[16] = target: RAF1 (Homo sapiens, UniProt P04049); settings: competition binding, % of control; read-out: Percent Control (100 uM Levosimendan)
Summary of the method: as §1

[17] = target: RIPK1 (Homo sapiens, UniProt Q13546); settings: competition binding, % of control; read-out: Percent Control (100 uM Levosimendan)
Summary of the method: as §1

[18] = target: TRPM6 (Homo sapiens, UniProt Q9BX84); settings: competition binding, % of control; read-out: Percent Control (100 uM Levosimendan)
Summary of the method: as §1

[19] = target: TSSK3 (Homo sapiens, UniProt Q96PN8); settings: competition binding, % of control; read-out: Percent Control (100 uM Levosimendan)
Summary of the method: as §1

- remaining binding at 100 µM [1]: 60%
- remaining binding at 100 µM [2]: 100%
- remaining binding at 100 µM [3]: 100%
- remaining binding at 100 µM [4]: 79%
- remaining binding at 10 µM ([5]; read-out: Percent Control (10 uM Levosimendan)): 98%
- remaining binding at 100 µM ([5]; read-out: Percent Control (100 uM Levosimendan)): 50%
- remaining binding at 100 µM [6]: 61%
- remaining binding at 100 µM [7]: 100%
- remaining binding at 100 µM [8]: 100%
- remaining binding at 100 µM [9]: 85%
- remaining binding at 100 µM [10]: 57%
- remaining binding at 100 µM [11]: 100%
- remaining binding at 100 µM [12]: 86%
- remaining binding at 100 µM [13]: 100%
- remaining binding at 100 µM [14]: 100%
- remaining binding at 100 µM [15]: 97%
- remaining binding at 100 µM [16]: 77%
- remaining binding at 100 µM [17]: 73%
- remaining binding at 100 µM [18]: 89%
- remaining binding at 100 µM [19]: 100%
Compound: C[C@@H]1CC(=O)NN=C1c1ccc(NN=C(C#N)C#N)cc1 [levosimendan]
